Experimental findings from patent US20100160454A1, “ANTIMICROBIAL AGENTS, COMPOSITIONS AND PRODUCTS CONTAINING THE SAME, AND METHODS OF USING THE COMPOSITIONS AND PRODUCTS” (Eastman Chemical Company, priority 2008, published 2010) are described below.

The test system of data set [1] is Bacillus subtilis ATCC 6633. Description: Determination of MIC and MLC in test broth. To be noted: Bacillus subtilis ATCC 6633, 30-day subculture. The class given is cell-based. The method, then: (§1) Two antimicrobial endpoints were investigated. The minimum inhibitory concentration (MIC), which identifies the lowest concentration of test material at which growth for a specific organism is inhibited (by a minimum of 3 log units), reflects “biostatic activity”. The minimum lethal concentration (MLC), or lowest concentration that kills the organism and at which subculturing with growth is not possible, reflects “biocidal activity”. 1,4-CHDM and propylene glycol (PG) were added to previously sterilized screw-cap glass tubes and diluted with Peptone Water Broth with 2 wt % Dextrose (=test broth) to the following dilutions (weight percent): 0.05, 0.075, 0.125, 0.25, 0.5, 0.75, 1.25, 2.5, 5.0, 7.5, 10.0, 15.0, 20.0.
(§2) Each of 12 sets of the above test tubes were challenged with specific organisms (see Table 5) to produce a contamination of between 1.0×10^5 cfu/g and 1.0×10^6 cfu/g in the test broth to which no 1,4-CHDM or propylene glycol had been added. These challenge organisms were prepared in TSB broth, allowed to grow for 72 hours at 35° C.+/−2° C., centrifuged at 2500 rpm for 5 minutes, and the supernatant broth was removed. The microbial pellet was then re-diluted with sterile buffered water to a turbidity that matched previous 1.0×10^6 cfu/g concentrations of that organism's specific growth curve. This challenge was repeated on day 3. Plate counts of both challenges enumerated to within 1.0×10^5+/−5,000 cfu/g after 7 days incubation at 35° C.+/−2° C.
(§3) These tubes were mixed well by inversion (minimum of 25 inversions) and incubated at 35° C.+/−2° C. The tubes were inverted again (minimum of 25 times) on the third and seventh day of incubation and prior to each subculture.
(§4) These subcultures were incubated under optimal conditions and nutrition for no less than 5 days. Subcultures of 0.1 ml, undiluted and diluted 1:10, 1:100, . . . , and 1:10,000, were transferred to plates using the spread plate method onto Plate Count Agar; and SAB Dextrose Agar in addition for the Candida and Aspergillus species; and incubated as follows: 35° C.+/−2° C. for the Plate Count Agar and 22° C.+/−2° C. for the SAB Dextrose plates of Candida albicans and Aspergillus niger. Negative results were not reported before 7 days incubation and counts were performed after no less than 5 days incubation. Counts of Candida and Aspergillus species were made on the agar representing the highest count observed, usually the SAB Dextrose.

In another data set the test system is Streptococcus faecalis. In words: Determination of MIC and MLC in test broth. The class given is cell-based. To be noted: 30-day subculture. The method, then: as §1, §2, §3, §4
The test system of another data set is Streptococcus pyogenes. Description: Determination of MIC and MLC in test broth. To be noted: 30-day subculture. In kind it is cell-based. As for the experimental part:
as §1, §2, §3, §4

The test system of a further data set is Proteus vulgaris. In words: Determination of MIC and MLC in test broth. The settings on record: 30-day subculture. In kind it is cell-based. As for the experimental part: as §1, §2, §3, §4
Data set [2] deals with Candida albicans ATCC 10231. In words: Determination of MIC and MLC in test broth. In kind it is cell-based. The settings on record: Candida albicans ATCC 10231, 30-day subculture. The method, then: as §1, §2, §3, §4
For data set [3], the system named is Escherichia coli ATCC 25922. Description: Determination of MIC and MLC in test broth. In kind it is cell-based. The settings on record: Escherichia coli ATCC 25922, 30-day subculture. As for the experimental part: as §1, §2, §3, §4
The nature of data set [4]: Water extraction of 1,4-CHDM from biodiesel, gas chromatography. In kind it is physicochemical. To be noted: soy biodiesel with theoretical 0.024 wt % CHDM, 0.90% water added, 3 days, centrifuged. The method, then:
A solution of 59.5 wt % 1,4-CHDM in ethoxydiglycol (Eastman DE solvent) was prepared by weighing into a vial 1.36 g ethoxydiglycol and 2.00 g 1,4-CHDM. The mixture was heated to 55° C. to melt the 1,4-CHDM, mixed on a vortex mixer, then placed on a rocker mixer overnight at room temperature to allow all of the 1,4-CHDM to dissolve.
1,4-CHDM was added to soy biodiesel as follows: 60.00 g soy biodiesel was weighed into 4-oz jar. 0.0246 g of the above CHDM/DE solution was weighed into the biodiesel. The sample was mixed using a magnetic stirrer. There was no visible separation after mixing and the biodiesel remained clear. The theoretical amount of CHDM in the biodiesel is 0.024 wt %. 5.00 g was removed from the sample for analysis.
To make a biodiesel mixture containing 0.90% water, 0.50 g deionized water was added to the remaining 55.0 g 1,4-CHDM/DE/biodiesel mixture and mixed with a magnetic stirrer. The mixture became cloudy when stirred and also contained visible water droplets. The mixture was allowed to sit undisturbed for 3 days, during which time a white aqueous layer appeared on the bottom and the biodiesel (top layer) still remained cloudy. The mixture was centrifuged to separate as much water as possible from the biodiesel. […] The 1,4-CHDM/DE/biodiesel mixtures before and after water extraction and the bottom aqueous layer were analyzed by gas chromatography for 1,4-CHDM. […]

Some results are limits rather than exact numbers.

Take `OCC1CCC(CO)CC1` (stereo not shown) [1,4-CHDM, 1,4-cyclohexanedimethanol]: the “MIC 30 DAYS” value (in data set [1]; against Streptococcus faecalis; in the data set with Streptococcus pyogenes; with Proteus vulgaris; in data set [2]; in data set [3]) was 2.5 wt % in each case. Also, the “MLC 30 DAYS” value in data set [1] is listed as greater than 20 wt %; in the data set with Streptococcus faecalis it was greater than 20 wt %; with Streptococcus pyogenes, 20 wt %; with Proteus vulgaris, greater than 20 wt %; in data set [2], 20 wt %; in data set [3], greater than 20 wt %. Further, in data set [4], the “1,4-CHDM content of the aqueous bottom layer” value worked out at 0.38 wt %.
For `CC(O)CO` (stereo not shown) [PG, propylene glycol], the “MIC 30 DAYS” value in data set [1] is recorded as 10 wt %; in the data set on Streptococcus faecalis, 20 wt %; with Streptococcus pyogenes, 20 wt %; in the data set on Proteus vulgaris, 20 wt %; in data set [2], 20 wt %; in data set [3], 10 wt %. Besides, the “MLC 30 DAYS” value (in data set [1]; in the data set on Streptococcus faecalis; in the data set on Streptococcus pyogenes; in the data set on Proteus vulgaris; in data set [2]; in data set [3]) was greater than 20 wt % throughout.
